Data reported in ChEMBL document CHEMBL3507680, “University of Dundee, Gates Library screen for HepG2 cell viability”.

assay: Human HepG2 cell viability assay in 384 well format; format: toxicity, cell-based; set-up: dose 125 nL, time 70.5 hour; concentration not given beside the values; settings: HepG2 cells, read-out: Inhibition

SMILES | cytotoxicity at 70.5 h
CN(C)C1CCCN(C(=O)NCc2ccccc2-n2cccn2)C1 (stereo unspecified) | 10.5%
O=C1CCCN1CCCC(=O)N1CCCC(Cc2cccnc2)C1 (stereo unspecified) | -4.43%
CCOC(=O)NC(C(=O)NCc1ccc(N2CCCCC2)nc1)C(C)C (stereo unspecified) | -8.83%
Cc1noc(CN(C)CC2(O)CCCN(CCC3CCCCC3)C2=O)n1 (stereo unspecified) | -0.981%
Cc1n[nH]c(C)c1CCCN(C)Cc1c[nH]nc1-c1ccc(F)cc1 | -4.19%
CN(Cc1cc(C2CC2)[nH]n1)Cc1cc2ccc(F)cc2[nH]c1=O | -12.6%
COc1ccc(OC)c(S(=O)(=O)NC(=O)C(C)OC)c1 (stereo unspecified) | -13.3%
CC(C)N(C)CCNC(=O)N1CCN(Cc2ccon2)CC1 | -5.35%
CC(C)SCCNC(=O)c1cccc2ccnn12 | -9.35%
CC(C)c1nc(CC(=O)N2CCN(C)CC2c2ccccc2)cs1 (stereo unspecified) | 12.9%
CCN1CC(C(=O)NC(C)(C)CNC(=O)OC(C)(C)C)CC1=O (stereo unspecified) | -8.18%
Cc1cc(CN2CC[C@H]3C[C@H](C)O[C@@H]3C2)no1 | -13.8%
COCCN1CCCC1c1nccnc1Nc1nc(C)cs1 (stereo unspecified) | -21.9%
c1cnnc(N2CCCC2CNCc2nc(-c3ccco3)no2)c1 (stereo unspecified) | -14.5%
CCn1c(N)nc2cc(C(=O)NCCc3ccccc3C)cnc21 | -5.73%
Cc1cc(C[C@@H]2COC[C@H]2NCc2ccc(C(F)(F)F)cc2)on1 | -5.79%
Cc1ccc(C(=O)N2CCOC(c3nc(C(C)(C)C)n[nH]3)C2)c(=O)[nH]1 (stereo unspecified) | 0.0481%
Cn1c2ccccc2c2ncn(CCCN3CCOCC3)c(=O)c21 | 12.2%
CC1=C(C(=O)N2CCOC(Cc3cccc(C(F)(F)F)c3)C2)OCCO1 (stereo unspecified) | -6.57%
CC(C)NC(=O)[C@H]1CCS(=O)(=O)[C@@H]2CN(c3ncccn3)C[C@H]12 | -6.18%
CN1CCC(N(C)C(=O)Nc2ccc(Cl)cc2)CC1 | -2.16%

SMILES | cytotoxicity at 70.5 h
COc1ccccc1OC1CCN(C(=O)c2cnc(C)cc2C)CC1 | -5%
c1ccc(CNC[C@H]2COCc3nc4cccnc4n32)cc1 | 11.9%
COc1cccc(CC(=O)N2CCc3ncnc(NC(C)C)c3CC2)c1 | -14%
CCOCCNC(=O)c1cnc(Sc2nccn2C)c(Cl)c1 | 2.36%
Fc1ccc(-c2nnc(CN3CCCC3Cn3cncn3)o2)cc1 (stereo unspecified) | -8.54%
Cc1cnn(CC(C)NCc2ccccc2OCc2cccnc2)c1 (stereo unspecified) | -7.82%
Cc1cc(C)nc(N2CCOC(C)(C(=O)N(C)C)C2)n1 (stereo unspecified) | -4.59%
CC(C)c1nc2c(n1C)CCN(Cc1nc(-c3cccnc3)no1)C2 | -11.9%
Cc1nc(C)c(C(=O)NCC(c2ccccc2Cl)N2CCOCC2)s1 (stereo unspecified) | 19.6%
CNS(=O)(=O)c1ccc(C(=O)N2CCCC2c2cnn(C)c2)o1 (stereo unspecified) | 23%
Cc1ccc(NC2CCN(C(=O)Cc3ccc(C)s3)CC2)nn1 | -7.07%
Cc1cc(NC(C)Cc2cccs2)n2nccc2n1 (stereo unspecified) | -14.7%
O=C(C1CCC1)N1CC[C@]2(O)CCN(Cc3ncccn3)C[C@@H]2C1 | -9.87%
COCCN1CCOCC2(C1)CN(C(=O)c1conc1C)CCO2 (stereo unspecified) | -1.78%
Cc1c(C(=O)N(C)CC(F)(F)F)nnn1-c1ccccc1Cl | 6.88%
CCc1cnc2c(c1Nc1ccncc1)c(=O)n(C)c(=O)n2C | 20.3%
Cc1cnn(CC(C)NCc2cc(C#N)ccc2F)c1 (stereo unspecified) | -5.57%
Cc1c(-c2cc(C(F)F)nc3sc(C(N)=O)c(N)c23)cnn1C | -1.99%
Cc1cnn(CC(C)NCc2ccc(OCc3nccn3C)cc2)c1 (stereo unspecified) | -5.96%
CC(=O)Nc1ccc(CNc2ccn(Cc3ccccc3)n2)cc1 | -3.05%
Cc1nc(NCC2CC2)nc2c1COCC21CCN(C(=O)NC(C)C)C1 (stereo unspecified) | -5.59%

SMILES | cytotoxicity at 70.5 h
CC(C)C(=O)N1CCN(c2cc(N(C)C)cnn2)CC1 | -5.3%
N#Cc1c(Cl)nsc1NCc1cccnc1OCC(F)(F)F | -105%
CCc1nc(CN2CCN(C(=O)c3cncnc3CC)CC2)cs1 | -3.73%
Cc1ccc(Oc2ccc(NC(=O)NCC3CCOC3)cn2)cc1C (stereo unspecified) | 4.23%
O=C(Nc1ccccc1)c1n[nH]c(-n2cnnc2)n1 | -2.23%
COc1cc(C(C)=O)ccc1OCC(=O)N(Cc1ccsc1)C1CC1 | -12%
O=C(NC1CC1)[C@H]1C[C@H]2OCC[C@H]2N(Cc2cccnc2)C1 | -7.68%
COC(=O)CCc1c(C)nc2cc(O)nn2c1C | -2.64%
O=C(CCc1ccccc1)N1CCC(c2n[nH]c(C3CC3)n2)CC1 | -7.31%
CN(C)c1ccc(CCCNC(=O)NCC(O)c2ccsc2)cc1 (stereo unspecified) | -3.63%
CC1CN(c2ncccc2C(=O)N[C@@H]2CCCc3ccccc32)CCN1 (stereo partly specified) | -4.37%
COc1ccc(Cl)cc1NCC(=O)N(Cc1ccccn1)C1CC1 | -4.9%
O=C1CCN(C(=O)NCc2cccc(Oc3ccccc3)c2)CCN1 | -6.34%
CN(C)CCN1CCCC12CCN(C(=O)c1cccn1C)CC2 | -15.1%
CC(NCc1ccccc1O)c1ccc(-n2ccnc2)cc1 (stereo unspecified) | 26.4%
CC(C)C1CN(c2cccc(C#N)n2)CCCN1Cc1ccc(F)cc1 (stereo unspecified) | -15.7%
Nc1ccncc1-n1cc(CCO)cn1 | 1.11%
O=C(NC1CCC1)[C@H]1C[C@@H]2CN(C(=O)Nc3ccc(F)cc3)C[C@H]1O2 | -5.31%
CCn1ncc(S(=O)(=O)N[C@@H]2CC[C@@H](n3ccnc3)[C@@H]2O)c1C | -10.4%
Cc1cc(C)n(CC(C)CNC(=O)N(C)Cc2cc(C)on2)n1 (stereo unspecified) | -8.81%
O=S(=O)(NCC1CCOC1)N1CCc2ccccc2C1 (stereo unspecified) | -0.92%

SMILES | cytotoxicity at 70.5 h
CC(=O)N1CC[C@H](c2nnc(Cc3c[nH]c4ccccc34)o2)C1 | -3.38%
O=C1N[C@@H]2CCN(C(=O)C3CCC3)[C@@H]2C(=O)N1c1ccc(F)cc1 | 21.8%
COCCNc1cc(-c2ccccc2CCN)c2cc[nH]c2n1 | -2.8%
CC(=O)N(Cc1ccoc1)C1CCCCC1 | -5.21%
CCc1nc(C2NC3(CCCC3)C(=O)N2CC2CC2)cs1 (stereo unspecified) | 22.7%
CCc1nsc(N2CCc3sccc3C2)n1 | -2.5%
CCCN1C[C@H]2CC[C@@H]1CN(Cc1cccc(-n3cccn3)c1)C2 | -0.983%
NS(=O)(=O)c1cccc(CNc2nccc(C(F)(F)F)n2)c1 | -5.9%
CN(CC(=O)NCC(=O)Nc1ccc(F)cc1)Cc1cccs1 | -20.9%
CC(C)c1ccn(C2(C(=O)O)CCN(c3ccncc3F)CC2)n1 | -4.07%
Cc1nn(C)c(Cl)c1C1CCCN1C(=O)c1nccnc1N (stereo unspecified) | -11.6%
CN(c1ccncn1)C1CC2(CCN(C(=O)c3cccn3C)C2)C1 (stereo unspecified) | -0.487%
OC1CCN(c2ccc(CNc3nc4ccccc4s3)cc2F)CC1 | -9.14%
Cc1cnn(CC2CCCN2CC(=O)Nc2cc(C(C)(C)C)no2)c1 (stereo unspecified) | 5.18%
CC(NCC(N)=O)c1c(F)cccc1Cl (stereo unspecified) | -85.6%
O=C(CSC1CCc2ccccc2NC1=O)NCCO (stereo unspecified) | 2.81%
Cc1ccc(OC2(C(=O)O)CCN(C(=O)c3nc(C)oc3C)CC2)cn1 | -7.82%
CCOc1cc(C)ccc1NS(=O)(=O)c1cc(C)c(C(=O)O)s1 | -1.53%
